Laboratory results: patent US9878986B2, “Compounds for selective histone deacetylase inhibitors, and pharmaceutical composition comprising the same” (CHONG KUN DANG PHARMACEUTICAL CORP., priority 2013, dated 2018)

Assays:
[1] = target: T1, HDAC 6 (Homo sapiens, UniProt Q9UBN7); test: Test of HDAC activities, HDAC6 (fluorimetric); format: biochemical; design: purchased Calbiochem 382180; conditions: samples at 0.1, 1, 10, 100, 1000 nM; 37° C. 60 minutes; fluorescence Ex 390, Em 460; read-out: HDAC inhibitory activities, HDAC6
T1 sequence (Q9UBN7 1-1215): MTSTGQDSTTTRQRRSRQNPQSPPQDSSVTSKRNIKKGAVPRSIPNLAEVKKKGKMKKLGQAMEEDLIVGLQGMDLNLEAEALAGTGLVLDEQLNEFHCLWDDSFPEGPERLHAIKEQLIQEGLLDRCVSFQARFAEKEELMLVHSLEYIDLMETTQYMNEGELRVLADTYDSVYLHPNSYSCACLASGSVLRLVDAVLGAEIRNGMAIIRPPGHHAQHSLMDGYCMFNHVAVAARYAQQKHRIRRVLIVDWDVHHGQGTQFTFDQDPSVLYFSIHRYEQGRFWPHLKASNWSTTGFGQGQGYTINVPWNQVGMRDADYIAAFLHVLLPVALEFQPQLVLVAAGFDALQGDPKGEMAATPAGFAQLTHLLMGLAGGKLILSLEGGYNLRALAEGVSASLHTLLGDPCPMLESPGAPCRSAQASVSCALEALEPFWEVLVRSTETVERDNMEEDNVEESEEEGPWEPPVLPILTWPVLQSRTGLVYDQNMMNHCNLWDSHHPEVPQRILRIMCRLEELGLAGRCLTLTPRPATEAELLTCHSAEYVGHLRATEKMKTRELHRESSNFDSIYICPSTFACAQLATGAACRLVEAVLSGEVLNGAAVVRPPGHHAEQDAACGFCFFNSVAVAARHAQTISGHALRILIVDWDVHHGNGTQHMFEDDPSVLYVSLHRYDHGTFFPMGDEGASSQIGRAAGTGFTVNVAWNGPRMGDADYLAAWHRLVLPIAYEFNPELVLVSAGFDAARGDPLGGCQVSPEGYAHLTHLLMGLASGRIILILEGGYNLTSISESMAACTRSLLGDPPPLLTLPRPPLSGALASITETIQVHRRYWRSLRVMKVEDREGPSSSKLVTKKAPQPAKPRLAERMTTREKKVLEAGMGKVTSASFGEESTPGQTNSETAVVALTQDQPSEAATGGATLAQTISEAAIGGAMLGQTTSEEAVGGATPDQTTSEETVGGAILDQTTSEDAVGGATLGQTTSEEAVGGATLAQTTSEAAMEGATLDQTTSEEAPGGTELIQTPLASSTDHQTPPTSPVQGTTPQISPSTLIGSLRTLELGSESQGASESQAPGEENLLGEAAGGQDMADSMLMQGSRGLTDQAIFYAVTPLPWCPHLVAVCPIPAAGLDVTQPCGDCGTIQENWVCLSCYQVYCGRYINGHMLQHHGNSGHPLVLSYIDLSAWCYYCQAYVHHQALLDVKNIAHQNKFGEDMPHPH
Method: (§1) The HDAC inhibitory activities of test materials were measured using the HDAC1 Fluorimetric Drug Discovery Assay Kit (Enzolifesciences: BML-AK511) and HDAC6 human recombinant (Calbiochem: 382180). In the HDAC1 assay, the samples were treated with concentrations of 100, 1000, and 10000 nM, and in the HDAC6 assay, the samples were treated with concentrations of 0.1, 1, 10, 100, and 1000 nM. After the treatment of the samples, the samples were reacted at 37° C. for 60 minutes, treated with a developer, and then reacted at 37° C. for 30 minutes. Then, the fluorescence intensity (Ex 390, Em 460) was measured using the FlexStation 3 (Molecular device).

[2] = target: HDAC1 (Homo sapiens, UniProt Q13547); test: Test of HDAC activities, HDAC1 Fluorimetric Drug Discovery Assay Kit; format: biochemical; design: purchased Enzolifesciences BML-AK511; conditions: samples at 100, 1000, 10000 nM; 37° C. 60 minutes; fluorescence Ex 390, Em 460; read-out: HDAC inhibitory activities, HDAC1
Method: as §1

Sequence of HDAC1 (Q13547 whole entry): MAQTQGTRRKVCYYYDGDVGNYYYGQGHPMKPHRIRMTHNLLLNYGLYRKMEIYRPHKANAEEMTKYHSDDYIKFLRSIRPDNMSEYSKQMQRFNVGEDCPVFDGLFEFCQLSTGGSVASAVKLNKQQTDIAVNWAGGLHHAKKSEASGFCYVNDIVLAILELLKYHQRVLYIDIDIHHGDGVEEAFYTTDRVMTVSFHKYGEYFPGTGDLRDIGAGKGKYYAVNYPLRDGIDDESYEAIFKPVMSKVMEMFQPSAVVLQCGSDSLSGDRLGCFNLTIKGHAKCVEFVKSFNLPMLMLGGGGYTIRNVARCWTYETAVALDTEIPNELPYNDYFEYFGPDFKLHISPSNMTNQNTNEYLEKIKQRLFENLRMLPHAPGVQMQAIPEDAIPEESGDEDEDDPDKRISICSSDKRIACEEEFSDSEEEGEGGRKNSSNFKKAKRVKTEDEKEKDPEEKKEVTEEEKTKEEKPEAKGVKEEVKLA

| SMILES | IC50 [1] [nM] | IC50 [2] [nM] |
| --- | --- | --- |
| O=C(NO)c1ccc(CN(C(=O)N2CCC[C@@H]2CO)c2ccc(C(F)(F)F)cc2)cc1 [Compound 522, (R)—N-(4-(hydroxycarbamoyl)benzyl)-2-(hydroxymethyl)-N-(4-(trifluoromethyl)phenyl)pyrrolidine-1-carboxamide] | 11 | 177 |
| CCN1CCN(C(=O)N(Cc2ccc(C(=O)NO)cc2)c2ccc(F)c(Cl)c2)CC1 [Compound 479, N-(3-chloro-4-fluorophenyl)-4-ethyl-N-(4-(hydroxycarbamoyl)benzyl)piperazine-1-carboxamide] | 7 | 280 |
| O=C(NO)c1ccc(CN(C(=O)N2CCCCC2)c2ccc(F)c(Cl)c2)cc1 [Compound 456, N-(3-chloro-4-fluorophenyl)-N-(4-(hydroxycarbamoyl)benzyl)piperidine-1-carboxamide] | 3 | 1270 |
| O=C(NO)c1ccc(CN(C(=O)N2CCC(O)CC2)c2cccc(C3=CCOCC3)c2)c(F)c1 [Compound 514, N-(3-(3,6-dihydro-2H-pyran-4-yl)phenyl)-N-(2-fluoro-4-(hydroxycarbamoyl)benzyl)-4-hydroxypiperidine-1-carboxamide] | 15 | 1240 |
| CN1CC=C(c2cccc(N(Cc3ccc(C(=O)NO)cc3)C(=O)N3CCOCC3)c2)CC1 [Compound 404, N-(4-(hydroxycarbamoyl)benzyl)-N-(3-(1-methyl-1,2,3,6-tetrahydropyridin-4-yl)phenyl) morpholine-4-carboxamide] | 16 | 3500 |
| O=C(NO)c1ccc(CN(C(=O)N2CCN(Cc3ccccc3)CC2)c2ccc(F)c(Cl)c2)cc1 [Compound 480, 4-benzyl-N-(3-chloro-4-fluorophenyl)-N-(4-(hydroxycarbamoyl)benzyl)piperazine-1-carboxamide] | 18 | 1070 |
| CC(C)(F)CN1CCN(C(=O)N(Cc2ccc(C(=O)NO)cc2)c2cccc(CF)c2)CC1 [Compound 766, 4-(2-fluoro-2-methylpropyl)-N-(3-(fluoromethyl)phenyl)-N-(4-(hydroxycarbamoyl)benzyl)piperazine-1-carboxamide] | 3 | 838 |
| COc1cc(-c2cccc(N(Cc3ccc(C(=O)NO)cc3)C(=O)N3CCOCC3)c2)cc(OC)c1OC [Compound 400, N-(4-(hydroxycarbamoyl)benzyl)-N-(3′,4′,5′-trimethoxybiphenyl-3-yl)morpholine-4-carboxamide] | 8 | 770 |
| O=C(NO)c1ccc(CN(C(=O)N2CCOCC2)c2ccc(OC(F)(F)F)cc2)cc1 [Compound 772, N-(4-(hydroxycarbamoyl)benzyl)-N-(4-(trifluoromethoxy)phenyl)morpholine-4-carboxamide] | 2.5 | 349 |
| CN1CCN(C(=O)N(Cc2ccc(C(=O)NO)cc2)c2ccc(F)c(Cl)c2)CC1 [Compound 478, N-(3-chloro-4-fluorophenyl)-N-(4-(hydroxycarbamoyl)benzyl)-4-methylpiperazine-1-carboxamide] | 9 | 190 |
| Cc1cccc(C)c1-c1cccc(N(Cc2ccc(C(=O)NO)cc2)C(=O)N2CCOCC2)c1 [Compound 401, N-(2′,6′-dimethylbiphenyl-3-yl)-N-(4-(hydroxycarbamoyl)benzyl)morpholine-4-carboxamide] | 8 | 1790 |
| O=C(NO)c1ccc(CN(C(=O)N2CCOCC2)c2ncccn2)cc1 [Compound 312, N-(4-(hydroxycarbamoyl)benzyl)-N-(pyrimidin-2-yl)morpholine-4-carboxamide] | 7 | 22700 |
| Cn1ncc2cc(-c3cccc(N(Cc4ccc(C(=O)NO)cc4)C(=O)N4CCCCC4)c3)ccc21 [Compound 260, N-(4-(hydroxycarbamoyl)benzyl)-N-(3-(1-methyl-1H-indazol-5-yl)phenyl)piperidine-1-carboxamide] | 7 | 551 |
| CC(C)(F)CN1CCN(C(=O)N(Cc2ccc(C(=O)NO)cc2)c2cccc(C(F)(F)F)c2)CC1 [Compound 531, 4-(2-fluoro-2-methylpropyl)-N-(4-(hydroxycarbamoyl)benzyl)-N-(3-(trifluoromethyl)phenyl)piperazine-1-carboxamide] | 5.1 | 1820 |
| O=C(NO)c1ccc(CN(C(=O)N2CCN(c3ccc(F)cc3)CC2)c2ccc(F)c(Cl)c2)cc1 [Compound 482, N-(3-chloro-4-fluorophenyl)-4-(4-fluorophenyl)-N-(4-(hydroxycarbamoyl)benzyl)piperazine-1-carboxamide] | 1 | 680 |
| CCN1CCN(C(=O)N(Cc2ccc(C(=O)NO)cc2)c2ccc(Cl)c(C(F)(F)F)c2)CC1 [Compound 394, N-(4-chloro-3-(trifluoromethyl)phenyl)-4-ethyl-N-(4-(hydroxycarbamoyl)benzyl)piperazine-1-carboxamide] | 11 | 2590 |
| O=C(NO)c1ccc(CN(C(=O)N2CCOCC2)c2cccc(-c3ccc4cc[nH]c4c3)c2)cc1 [Compound 261, N-(3-(1H-indol-6-yl)phenyl)-N-(4-(hydroxycarbamoyl)benzyl)morpholine-4-carboxamide] | 2 | 72 |
| O=C(NO)c1ccc(CN(C(=O)N2CCN(c3ccncc3)CC2)c2ccc(C(F)(F)F)cc2)cc1 [Compound 544, N-(4-(hydroxycarbamoyl)benzyl)-4-(pyridin-4-yl)-N-(4-(trifluoromethyl)phenyl)piperazine-1-carboxamide] | 21 | 503 |
| O=C(NO)c1ccc(CN(C(=O)N2CCN(Cc3ccccc3)CC2)c2cccc(C(F)(F)F)c2)cc1 [Compound 683, 4-benzyl-N-(4-(hydroxycarbamoyl)benzyl)-N-(3-(trifluoromethyl)phenyl)piperazine-1-carboxamide] | 1.4 | 545 |
| CC1CN(C(=O)N(Cc2ccc(C(=O)NO)cc2)c2cccc(-c3ccc4c(c3)OCO4)c2)CC(C)O1 (stereo not drawn) [Compound 464, N-(3-(benzo[d][1,3]dioxol-5-yl)phenyl)-N-(4-(hydroxycarbamoyl)benzyl)-2,6-dimethylmorpholine-4-carboxamide] | 10 | 1170 |
| C[C@@H]1CN(C(=O)N(Cc2ccc(C(=O)NO)cc2)c2cccc(C(F)(F)F)c2)C[C@H](C)N1CC(F)(F)C(F)(F)F [Compound 803, (3S,5R)—N-(4-(hydroxycarbamoyl)benzyl)-3,5-dimethyl-4-(2,2,3,3,3-pentafluoropropyl)-N-(3-(trifluoromethyl)phenyl)piperazine-1-carboxamide] | 213 | 5320 |
| O=C(NO)c1ccc(CN(C(=O)N2CCCCC2)c2ccc(Cl)c(C(F)(F)F)c2)cc1 [Compound 389, N-(4-chloro-3-(trifluoromethyl)phenyl)-N-(4-(hydroxycarbamoyl)benzyl)piperidine-1-carboxamide] | 37 | 7830 |
| CN1CCN(C(=O)N(Cc2ccc(C(=O)NO)cc2)c2cccc(-c3ccc4c(c3)OCO4)c2)CC1 [Compound 466, N-(3-(benzo[d][1,3]dioxol-5-yl)phenyl)-N-(4-(hydroxycarbamoyl)benzyl)-4-methylpiperazine-1-carboxamide] | 3 | 408 |
| O=C(NO)c1ccc(CN(C(=O)N2CCC(O)(c3ccccc3)CC2)c2cccc(-c3ccc4c(c3)OCO4)c2)cc1 [Compound 465, N-(3-(benzo[d][1,3]dioxol-5-yl)phenyl)-4-hydroxy-N-(4-(hydroxycarbamoyl)benzyl)-4-phenylpiperidine-1-carboxamide] | 9 | 2280 |
